Laboratory results from patent publication US20220160751A1, “METHODS OF TREATMENT OF DISEASES AND DISORDERS ASSOCIATED WITH INCREASED TET LEVEL, INCREASED H19 LEVEL, INCREASED LEVEL OF TGF SIGNALING, OR ANY COMBINATION THEREOF” (YALE UNIVERSITY, priority 2019, published 2022).
Entries after “also recorded” stand apart in the source; their conditions may differ.

Experiments:
Type in all cases: cell-based
[1] = system: primary human hepatocytes; experiment: qPCR of gene expression in primary human hepatocytes; details: glucagon 20 nM vs vehicle
Protocol: Mouse primary hepatocytes were prepared as previously described (Zhang N et al., 2018, JCI Insight 3:e120304). Cells were maintained in Williams' Medium (GIBCO, 12551) with 5% FBS, 1% 1 M HEPES buffer (GIBCO, 15630-080), 1% L-Glutamine (GIBCO, 25030-081), 1% SPA (GIBCO, 15240-062), 4 mg/L insulin (GIBCO, 12585-014) and 1 μM dexamethasone (Sigma, D4902). For TET3 overexpression experiments, freshly isolated mouse primary hepatocytes were seeded in 12-well collagen 1-coated plates (BD Biosciences Discovery Labware) at 4×10^5 cells/well and infected with Ad-GFP or Ad-TET3 at 4,000 gc/cell at 3 h after seeding. For TET3 or HNF4α P2 isoform knockdown experiments, cells seeded in 12-well plates were infected with AAV-scr, AAV-siTET3, or AAV-siP2 at 6,000 gc/cell at 3 h after seeding. Medium was changed the next day and glucagon was added at a final concentration of 20 nM. Glucose production assays were carried out at 60 h after infection. […]
Total RNAs were extracted from liver or pancreas tissues or from primary hepatocytes using PureLink RNA Mini Kit. cDNA was synthesized using PrimeScript RT Reagent Kit in a 20 μl reaction containing 0.5-1 μg of total RNA. Real-time quantitative PCR was performed in a 15 μl reaction containing 0.5-1 μl of cDNA using iQSYBRGreen in a Bio-Rad iCycler. […]

[2] = system: mouse primary hepatocytes; experiment: qPCR and immunoblotting of gene expression in mouse primary hepatocytes
Protocol: Mouse primary hepatocytes were prepared as previously described (Zhang N et al., 2018, JCI Insight 3:e120304). Cells were maintained in Williams' Medium (GIBCO, 12551) with 5% FBS, 1% 1 M HEPES buffer (GIBCO, 15630-080), 1% L-Glutamine (GIBCO, 25030-081), 1% SPA (GIBCO, 15240-062), 4 mg/L insulin (GIBCO, 12585-014) and 1 μM dexamethasone (Sigma, D4902). For TET3 overexpression experiments, freshly isolated mouse primary hepatocytes were seeded in 12-well collagen 1-coated plates (BD Biosciences Discovery Labware) at 4×10^5 cells/well and infected with Ad-GFP or Ad-TET3 at 4,000 gc/cell at 3 h after seeding. For TET3 or HNF4α P2 isoform knockdown experiments, cells seeded in 12-well plates were infected with AAV-scr, AAV-siTET3, or AAV-siP2 at 6,000 gc/cell at 3 h after seeding. Medium was changed the next day and glucagon was added at a final concentration of 20 nM. Glucose production assays were carried out at 60 h after infection. Human primary hepatocytes (M00995, Millipore, Sigma) were purchased, thawed, and maintained in InVitroGRO™ CP Medium (Sigma-Aldrich, Z990003) containing 2% Torpedo™ Antibiotic Mix. The cells were seeded in 12-well plates coated with collagen 1 (Millipore, 08-115). Infection of AAV-scr, AAV-sihTET3, and AAV-sihP2 were performed the next day after cell thawing and followed the same dosing protocol for the mouse primary hepatocytes.
Total RNAs were extracted from liver or pancreas tissues or from primary hepatocytes using PureLink RNA Mini Kit. cDNA was synthesized using PrimeScript RT Reagent Kit in a 20 μl reaction containing 0.5-1 μg of total RNA. Real-time quantitative PCR was performed in a 15 μl reaction containing 0.5-1 μl of cDNA using iQSYBRGreen in a Bio-Rad iCycler. PCR was performed by initial denaturation at 95° C. for 5 min, followed by 40 cycles of 30 sec at 95° C., 30 sec at 60° C., and 30 sec at 72° C. Specificity was verified by melting curve analysis. The Ct values of each sample were used in the post-PCR data analysis. Gene expression levels were normalized against house-keeping genes GAPDH and RPLP0.
Primary hepatocytes in 12-well plates were dissociated with 0.25% trypsin. After […] centrifugation at 1000 rpm for 5 min, supernatants were discarded and cell pallets were homogenized in 2×SDS-sample buffer (100 ul/well), followed by heating at 100° C. for 5 min, with occasional vortexing. For liver tissue samples, 5 mg of tissues were minced and 200 μl of 2× SDSsample buffer was added, followed by homogenization on ice using a sonicator (Qsonica, Q125-110). Homogenized samples were heated at 100° C. for 5 min and then centrifuged at 12,000 g for 5 min to remove insoluble materials before loading onto 12% SDS gels (5 μl/well), followed by Western blot analysis. Bands on Western blot gels were quantified using ImageJ. GAPDH was used as a loading control.

[3] = system: Hnf4a P2 and P1 promoters; experiment: ChIP-qPCR and QMSP of Hnf4a promoters in mouse hepatocytes
Protocol: Genomic DNA was extracted from mouse primary hepatocytes grown in 12-well plates using Quick-gDNA MicroPrep (Zymo Research Corporation, D3021) according to the manufacturer's instructions. For bisulfite treatment, 480 ng of DNA was used for each column using EZ DNA Methylation-Gold Kit (Zymo, D5006). 100 μl of elution buffer was used to elute DNA from each column. Real-time quantitative PCR was performed in a 15 μl reaction containing 5 μl of the eluted DNA using iQSYBRGreen in a Bio-Rad iCycler. Two sets of PCR primers were designed: one for unmethylated and one for methylated DNA sequences. The PCR primers for methylated DNA were used at a final concentration of 0.6 μM in each PCR reaction. PCR was performed by initial denaturation at 95° C. for 5 min, followed by 40 cycles of 30 sec at 95° C., 30 sec at 60° C., and 30 sec at 72° C. Specificity was verified by melting curve analysis. The threshold cycle (Ct) values of each sample were used in the post-PCR data analysis. The ratio of methylated versus unmethylated DNA sequences are presented.
Experiments were performed in a 12-well plate scale using the Pierce Agarose ChIP Kit (Thermo Scientific, 26156) according to the manufacturer's instructions with minor modifications. Briefly, agarose beads were used to pre-bind with antibodies (anti-TET3, anti-Ser-5(P)-RNAP, or pre-immune IgGs as negative controls) overnight at 4° C. The next day, hepatocytes were crosslinked with 1% formaldehyde at room temperature for 10 min, and the reaction was stopped by 1×glycine. ChIPs were carried out overnight at 4° C. Levels of ChIP-purified DNA were determined with qPCR (see Table 1 for primer sequences). The relative enrichments of the indicated DNA regions were calculated using the Percent Input Method according to the manufacturer's instructions and are presented as % input.

primary human HSCs = experiment: qPCR of key pathway genes in primary human HSCs; details: TGF-β1 2 ng/mL vs vehicle, 24 h
Protocol: (§1) Total RNA was extracted from cultured cells or liver tissue samples using PureLink RNA Mini Kit (Ambion, 12183018A). 0.8 μg of total RNA was reverse transcribed to cDNA in a reaction volume of 10 μl using PrimeScript RT Reagent Kit (TAKARA, RR037A). Quantitative real-time PCR reactions were carried out using iQSYBRGreen (Bio-Rad) in a Bio-Rad iCycler. Gene expression levels were normalized against housekeeping genes HPRT1 and RPLP0.

[4] = system: LX-2 human hepatic stellate cells; experiment: qPCR and immunoblotting of gene expression in LX-2 cells; details: TGF-β1 5 ng/mL vs vehicle, 24 h
Protocol: LX-2 human hepatic stellate cells (Yale Liver Center) were maintained in DMEM (Gibco, 11965-092) supplemented with 10% heat-inactivated fetal bovine serum (Gibco, 26140-079) and 1% PS (penicillin and streptomycin) at 37° C. in 5% humidified CO2 tissue culture incubator. Generally, cells were plated and transfected in a 24-well plate scale. For transfection with siRNA, let-7, or iLet7, 10 pmol of siTET3 (or siCon), let-7 (or miCon), or iLet7 (iCon) were mixed with 25 μl of OPTI-MEM (Gibco, 31985-070) by gentle pipetting. In parallel, 1 μl of Lipofectamine 3000 (ThermoFisher Scientific, L3000015) was mixed with 25 μl of OPTI-MEM. Then, the contents from the two tubes were mixed by gentle pipetting. After incubation for 5 min at RT, the resulting 50 μl solution was used to resuspend cell pellet (5×10^4 cells). After incubation at RT for 10 min, 450 μl of growth medium was added and the cell suspension was transferred into one well of a 24-well plate. For transfection with TET3-expression plasmid pTET3 (pcDNA-Flag-Tet3, Addgene plasmid #60940, (30)) or control vector, 5×10^4 cells per well were seeded in a 24-well plate the night before transfection. The next day, 0.75 μg of pTET3 (or Vec) were mixed with 1 μl of P3000 in 25 μl of OPTI-MEM by gentle pipetting. In parallel, 0.5 μl of Lipofectamine 3000 were mixed with 25 μl of OPTI-MEM. The contents from the two tubes were combined by gentle pipetting and incubated for 5 min at RT. The resulting 50 μl of transfection solution was added to each well of cells seeded in a 24-well plate the night before and from which the growth medium had been removed. After 6 h of incubation in a tissue culture incubator, 500 μl of growth medium were added to each well of cells. For TGF-β1 (Sigma, USA) treatment experiments, transfected cells were incubated in 500 μl of serum-free DMEM containing 5 ng/mL TGF-β1 (diluted with HCl) or HCl (as control) for 24 h or 48 h as indicated.
as §1
For liver tissue samples, 5-10 mg of tissues were homogenized by sonication (Qsonica, Model Q125) in 150 μl of 2×SDS-sample buffer. Samples were immediately heated at 100° C. for 3 min with occasional vertexing. Then, 100 μl of 2×SDS-sample buffer was added to each sample and the 250 μl of tissue lysate were further homogenized by sonication and heated again at 100° C. for 3-5 min with vertexing once every 15 sec. Samples (further diluted at 1:1 with 2×SDS-sample buffer before loading) were loaded 5-10 μl per well onto a 4-15% gradient SDS gel, followed by Western blot analysis. Image J was used to quantify the protein bands.

[5] = glucagon-stimulated versus vehicle treated hepatocytes

Substance	HNF4α expression from P2 and P1 [1]	expression of PCK1 and G6PC [1]	HNF4α P2 usage (qPCR) ([2]; H19 KO hepatocytes, glucagon 20 nM 24 h)	Tet3 expression (qPCR) ([2]; H19 KO primary hepatocytes, glucagon 20 nM 24 h)	Pck1 and G6pc expression (qPCR) ([2]; WT hepatocytes, glucagon 20 nM vs vehicle)	HNF4α P2 and P1 isoform expression (qPCR) ([2]; WT primary hepatocytes)	H19 and Tet3 expression (qPCR) ([2]; WT primary hepatocytes, glucagon 20 nM 24 h or AAV-H19 48 h without glucagon)	binding of TET3 to Hnf4a promoters (ChIP-qPCR) ([3]; glucagon 20 nM 24 h vs vehicle)	methylation of P2 (QMSP) ([3]; glucagon 20 nM 24 h vs vehicle)	RNAP association with P1 (ChIP) [3, 5]	enrichment in RNAP at the P2 promoter (ChIP) [3, 5]	expression of TET2 and TET1 (primary human HSCs)	expression of TET3, TGFB1, TSP1, TGFBR2, FN1, and COL1A1 (primary human HSCs)	LIN28B expression [4]	SMAD3 phosphorylation (with expression of α-SMA, COL1A1, FN1 and TIMP1) [4]	TET3 expression (mRNA and protein) [4]	expression of TGF-β1, TSP1, and TGFBR2 [4]	let-7a and let-7b expression [4]
glucagon	stimulated expression from P2 (but not P1)	increased expression of PCK1 and G6PC	failed to do so	no longer stimulated Tet3 expression	increased expression of Pck1 and G6pc	increased P2 usage in WT hepatocytes	readily induced	dramatically increased binding of TET3 to P2 but not P1	significantly decreased methylation of P2	no change in RNAP association with P1	approximately 5 fold							
TGF-β1: TGF-β1 (Sigma) used to stimulate LX-2 cells and primary human HSCs												decreased expression of TET2 and TET1	increased expression of TET3, TGFB1, TSP1, TGFBR2, FN1, and COL1A1	stimulated expression of LIN28B	concomitant increase in SMAD3 phosphorylation; also recorded: increased Smad3 phosphorylation	upregulated TET3; also recorded: increased expression of TET3	also increased	decreased expression of let-7a and let-7b
